Laboratory results reported in publication PMC3692431, “Anticonvulsant Activity of B2, an Adenosine Analog, on Chemical Convulsant-Induced Seizures” (PLoS ONE, 2013).
Like-named read-outs stand apart in the source and are kept apart here.

How the values were obtained:
[1] = system: picrotoxin-induced seizures; format: in vivo, mice; conditions: picrotoxin 3.5 mg/kg; for mortality rate: control 50%; for latency to seizure onset prolonged by / number of seizures reduced by: vs control
Experimental: (§1) KA was dissolved in saline and the pH was adjusted to neutrality. The final concentration of KA was 0.7 µg/µl, and the convulsant dose was 1 µl (i.c.v.). […] The selective adenosine receptor antagonist DPCPX or SCH58261 was administered (i.p.) 5 min before administration of B2 or vehicle.
The latency of seizure onset, number of seizures, and mortality rate was recorded for the picrotoxin-injected mice. For the PTZ-injected mice, we recorded the latency of seizure onset, number of seizures, and presence of clonic seizures.

[2] = biological target: T1, recombinant human adenosine A1 receptor (Homo sapiens, UniProt P30542); test: cAMP accumulation assay in CHO cells expressing A1 receptor; format: cell-based; conditions: CHO cells stably expressing human A1 receptor; forskolin-stimulated cAMP; read-out: EC50, decrease of cellular cAMP level
T1 construct: expressed in transfected cells; host or cells: CHO cells (provided by Professor R. B. Su)
T1 sequence (P30542 1-326): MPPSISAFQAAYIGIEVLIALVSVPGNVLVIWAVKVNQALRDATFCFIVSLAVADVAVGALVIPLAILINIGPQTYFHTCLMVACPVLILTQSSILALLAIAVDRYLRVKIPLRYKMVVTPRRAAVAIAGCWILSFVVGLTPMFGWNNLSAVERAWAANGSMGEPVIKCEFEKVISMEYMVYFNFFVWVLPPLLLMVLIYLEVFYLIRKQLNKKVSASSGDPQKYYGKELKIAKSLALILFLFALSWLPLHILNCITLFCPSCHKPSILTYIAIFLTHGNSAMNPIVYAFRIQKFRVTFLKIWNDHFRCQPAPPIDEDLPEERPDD
Experimental: Chinese hamster ovary (CHO) cells expressing recombinant human A1/A2A receptors (provided by Professor R. B. Su of the Institute of Pharmacology and Toxicology, Academy of Military Medical Sciences, Beijing, China) were cultured in Dulbecco’s Modified Eagles Medium with the F12 nutrient mixture (DMEM/F12) containing no nucleosides, and with 10% fetal calf serum, penicillin (100 U/ml), streptomycin (100 µg/ml), L-glutamine (2 mM), and Geneticin at 37°C in a 5% CO2/95% atmosphere. The cells used to determine cAMP levels had viability >95%, as assessed by trypan blue exclusion.
Intracellular cyclic adenosine monophosphate (cAMP) levels were measured using a competitive protein binding method. To measure A1/A2A receptor-mediated accumulation of cAMP, cells were grown as confluent monolayers in 24-well cluster dishes. The cells were washed twice with 2 mL of medium containing 20 mM HEPES that had been prewarmed to 37°C, pH 7.4. The cells were then preincubated for 15 min in 0.4 mL fresh medium containing 30 µM of the cAMP phosphodiesterase inhibitor rolipram. B2 was added in 0.1 mL of medium and incubations continued for 15 min. The reaction was then terminated by removing the supernatant, and cells were lysed with the addition of 500 µl of 0.1 M ice-cold HCl. The cell lysate was centrifuged (4,000×g) at 4°C for 10 min. […] Bound radioactivity was measured by liquid scintillation spectrometry.

[3] = system: strychnine-induced seizures; test: Strychnine-induced seizures in mice; format: in vivo; conditions: strychnine 1.5 mg/kg i.p.; for mortality rate: control 88%; for latency to seizure onset prolonged by: vs control
Experimental: as §1
Mice were injected with B2 (1.25, 5, 20 mg/kg), carbamazepine (80 mg/kg) or vehicle 20 min before administration of strychnine (1.5 mg/kg) or 4-AP (13 mg/kg). […] The time of latency to seizure onset and mortality rate were recorded.

[4] = system: c-Fos expression in the hippocampus; test: PTZ-induced c-Fos expression, immunohistochemistry; format: in vivo, mice; conditions: B2 5 mg/kg, PTZ 85 mg/kg, 2 h
Experimental: Mice were injected with either B2 (5 mg/kg) or vehicle 20 min before administration of PTZ (85 mg/kg). Two hours later, mice were either anesthetized for c-Fos analysis using immunohistochemistry or decapitated or western blotting.
Mice were anesthetized with chloral hydrate (400 mg/kg, i.p.) and perfused through the heart with saline solution followed by ice-cold 4% paraformaldehyde (PFA) in 0.1 M phosphate buffer (pH 7.4). Their brains were then removed, post-fixed in 4% PFA for 24 h at 4°C, and immersed in 30% sucrose at 4°C until they sank. Thereafter, coronal sections (30 µm) were cut using a freezing microtome (Leica RM2125).
Sections were immunostained using previously described methods. Sections were first immersed in 0.3% Triton X-100 for 10 min at room temperature, and then in 3% hydrogen peroxide for 10 min to quench endogenous peroxidase activity. Sections were then rinsed twice in 10 mM phosphate-buffered saline (pH 7.2) containing 0.3% Triton X-100. This was followed by incubation with diluted normal blocking serum (Vector Elite ABC kit) for 30 min and then 1∶800 rabbit polyclonal anti-c-Fos (primary) antibodies overnight at 4°C. Biotinylated secondary antibody solutions and VectaStain® Elite ABC reagents were applied. The peroxidase reaction was visualized using DAB with nickel ammonium sulfate for black staining. Sections were mounted, dehydrated and cover slipped. […]

A1 adenosine receptor = biological target: T2, A1 adenosine receptor (Rattus norvegicus, UniProt P25099); test: Radioligand binding, [3H]DPCPX displacement in rat cortical membranes; conditions: 0.2 nM [3H]DPCPX
T2 construct: from tissue; host or cells: cerebral cortex of male Wistar rats
T2 sequence (P25099 1-326): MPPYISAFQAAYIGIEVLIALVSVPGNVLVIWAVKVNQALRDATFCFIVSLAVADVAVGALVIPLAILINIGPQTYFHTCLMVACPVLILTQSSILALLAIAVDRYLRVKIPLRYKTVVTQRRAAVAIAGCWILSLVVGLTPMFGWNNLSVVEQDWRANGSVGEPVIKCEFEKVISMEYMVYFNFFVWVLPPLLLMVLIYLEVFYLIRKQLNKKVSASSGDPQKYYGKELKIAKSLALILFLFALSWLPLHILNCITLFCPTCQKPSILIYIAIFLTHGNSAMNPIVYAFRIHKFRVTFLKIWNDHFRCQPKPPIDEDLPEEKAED

COc1cc(CNc2ncnc3c2ncn3[C@@H]2O[C@H](CO)[C@@H](O)[C@H]2O)ccc1O [B2, N^6-(3-methoxyl-4-hydroxybenzyl) adenine riboside]
mortality rate ([1]; B2 1.25 mg/kg i.p.): 25% | latency to seizure onset prolonged by ([1]; B2 1.25 mg/kg i.p.): 64% | number of seizures reduced by ([1]; B2 1.25 mg/kg i.p.): 18% | mortality rate ([1]; B2 5 mg/kg i.p.): 13% | latency to seizure onset prolonged by ([1]; B2 5 mg/kg i.p.): 242% | number of seizures reduced by ([1]; B2 5 mg/kg i.p.): 64% | mortality rate ([1]; B2 20 mg/kg i.p.): 25% | latency to seizure onset prolonged by ([1]; B2 20 mg/kg i.p.): 183% | number of seizures reduced by ([1]; B2 20 mg/kg i.p.): 53% | EC50 [2]: 180 nM | mortality rate ([3]; B2 1.25 mg/kg i.p.): 71% | latency to seizure onset prolonged by ([3]; B2 1.25 mg/kg i.p.): 45% | mortality rate ([3]; B2 5 mg/kg i.p.): 43% | latency to seizure onset prolonged by ([3]; B2 5 mg/kg i.p.): 88% | mortality rate ([3]; B2 20 mg/kg i.p.): 57% | latency to seizure onset prolonged by ([3]; B2 20 mg/kg i.p.): 89% | effect on PTZ-induced increase of c-Fos expression in the CA2/3 region [4]: minor effect | effect on PTZ-induced increase of c-Fos expression in the dentate gyrus and CA1 [4]: significantly reversed | Ki (A1 adenosine receptor): 420 nM
